What was measured:
[1] = tested on: human cells; details: human cells in vitro; cited from earlier work
[2] = "at levels of up to 10%"; cited from earlier work
[3] = tested on: skin of a subject's left arm; experiment: Histology of polyphenol-stained (ferric chloride) punch biopsy, treated vs untreated skin; type: in vivo, human; details: 25% dimethyl isosorbide solution, topical, 24 days, vs untreated skin of same subject
Experimental: The skin of a subject's left arm 2 cm^2 patch (upper under arm above elbow) was treated with a 25% dimethyl isosorbide solution of glucosyl pentagallate for 24 days. Biopsy samples of the treated skin and a similar sample of untreated skin from the same subject's right were then taken, sectioned, and stained for polyphenol (Ferric Chloride stain) and imaged with a light microscope.

[4] = tested on: skin of a subject's left arm (elastic fibers); experiment: Histology of elastin (VVG stained) punch biopsy, treated vs untreated skin; type: in vivo, human; details: 25% dimethyl isosorbide solution, topical, 24 days, vs untreated skin of same subject
Experimental: The skin of a subject's left arm was treated with a 25% dimethyl isosorbide solution of glucosyl pentagallate for 24 days.

## CC1=NC(C(=O)O)CCN1 (stereo not shown) [Ectoin, 1,4,5,6-tetrahydro-2-methyl-4-pyrimidinecarboxylic acid]
[1]
  cell damage from UV and visible light: prevent cell damage from UV and visible light

## NCCCC(=O)O [GABA, γ-aminobutyric acid]
[2]
  improvement of skin elasticity: up to 10%

## O=C(OC[C@H]1O[C@@H](OC(=O)c2cc(O)c(O)c(O)c2)[C@H](OC(=O)c2cc(O)c(O)c(O)c2)[C@@H](OC(=O)c2cc(O)c(O)c(O)c2)[C@@H]1OC(=O)c1cc(O)c(O)c(O)c1)c1cc(O)c(O)c(O)c1 [glucosyl pentagallate]
[3]
  polyphenol (ferric chloride) staining of the dermis, showing glucosyl pentagallate in the dermis: more black staining in the dermis
[4]
  VVG staining of elastic fibers (levels of elastin fibers): significant black staining

From patent US20230240964A1, “SKIN-FIRMING COSMETIC COMPOSITIONS” (Elastintech, Inc., priority 2021, published 2023)
